Drawing on ChEMBL document CHEMBL6182876, “Design, synthesis and preliminary structure-activity relationship of 2-iminothiazolidine-4-one derivatives against Schistosoma japonicum in vitro and in vivo” (Eur J Med Chem, 2025), this text covers mortality and IC50 for 26 compounds.

pIC50: −log10 of the molar value. A value given as a limit tells only on which side of the number the result lay.

Test [1] concerns Schistosoma japonicum. Description: Anti-schistosomal activity against adult Schistosoma japonicum assessed as worm mortality at 100 uM measured at 4 hrs relative to control. Format: functional.
Test [2] deals with Schistosoma japonicum. Briefly: Anti-schistosomal activity against adult Schistosoma japonicum assessed as worm mortality at 100 uM measured at 24 hrs relative to control. In kind it is functional.
Test [3] has as its system Schistosoma japonicum. Description: Anti-schistosomal activity against adult Schistosoma japonicum assessed as worm mortality at 100 uM measured at 12 hrs relative to control. In kind it is functional.
In test [4] the test system is Schistosoma japonicum. Briefly: Anti-schistosomal activity against adult Schistosoma japonicum assessed as worm mortality at 100 uM measured at 48 hrs relative to control. In kind it is functional.
In test [5] the test system is Schistosoma japonicum. Description: Anti-schistosomal activity against adult Schistosoma japonicum measured at 72 hrs. In kind it is functional, organism-based.
Test [6] has as its system Schistosoma japonicum. Briefly: Anti-schistosomal activity against adult Schistosoma japonicum assessed as worm mortality at 100 uM measured at 72 hrs relative to control. Format: functional.
In test [7] the test system is Schistosoma japonicum. Description: Anti-schistosomal activity against adult Schistosoma japonicum assessed as worm mortality at 100 uM measured at 8 hrs relative to control. Format: functional.

As usually defined, the mortality is the share of the test organisms that died. A word on the pIC50: it is −log10 of the IC50, conventionally taken in molar units. Read a low pIC50 as a high IC50. In the case of `CCOC(=O)/C=C1\S/C(=N\c2ccccc2)N(CCN2CCC(Cc3ccccc3)CC2)C1=O`, the mortality at 100 µM in test [1] turned out to be 0%; in test [2], 0%; in test [3], 0%; in test [4], 20%; in test [6], 70%; in test [7], 0%. For the same compound, the pIC50 in test [5] is 4.04.
Regarding `CN1CCN(CCCN2C(=O)/C(=C/c3ccc([N+](=O)[O-])cc3)S/C2=N\c2ccc(C(F)(F)F)cc2)CC1`, the mortality at 100 µM in test [1] worked out at 0%; in test [2], 0%; in test [3], 0%; in test [4], 30%; in test [6] it was 70%; in test [7] it was 0%.
`CCOC(=O)/C=C1\S/C(=N\c2ccccc2C(F)(F)F)N(CCCN2CCN(C)CC2)C1=O`: the mortality at 100 µM in test [1] was determined as 0%; in test [2], 100%; in test [3], 100%; in test [4], 100%; in test [6], 100%; in test [7], 40%. Further, the negative logarithm of the IC50 (pIC50) in test [5] is 4.48.
`CN1CCN(CCCN2C(=O)/C(=C/c3ccccc3)S/C2=N\c2ccc(C(F)(F)F)cc2)CC1`: the mortality at 100 µM in test [1] worked out at 0%; in test [2], 10%; in test [3], 0%; in test [4], 20%; in test [6], 30%; in test [7], 0%.
As for `CCOC(=O)/C=C1\S/C(=N\c2ccc([N+](=O)[O-])cc2)N(CCCN2CCN(C)CC2)C1=O`, the mortality at 100 µM in test [1] is 0%; in test [2], 10%; in test [3] it was 0%; in test [4] it was 100%; in test [6] it was 100%; in test [7], 0%. The negative logarithm of the IC50 (pIC50) in test [5] was 4.14.
Consider `COc1ccc(/C=C2\S/C(=N\c3ccc(C(F)(F)F)cc3)N(CCCN3CCN(C)CC3)C2=O)cc1`, for which the mortality at 100 µM came to 0% in test [1]; 0% in test [2]; 0% in test [3]; 20% in test [4]; 60% in test [6]; 0% in test [7].
On to `CCOC(=O)/C=C1\S/C(=N\c2ccc(Br)cc2)N(CCCN2CCN(C)CC2)C1=O`, for which the mortality at 100 µM in test [1] was determined as 0%; in test [2], 100%; in test [3], 60%; in test [4] it was 100%; in test [6], 100%; in test [7] it was 30%. The negative-log IC50 (pIC50) in test [5] was 4.45.
Turning to `CCOC(=O)/C=C1\S/C(=N\c2ccccc2)N(CCN2CCOCC2)C1=O`, the mortality at 100 µM was 0% in test [1]; 0% in test [2]; 0% in test [3]; 40% in test [4]; 60% in test [6]; 0% in test [7]. Further, the pIC50 in test [5] is 4.03.
Turning to `CN1CCN(CCCN2C(=O)/C(=C/c3cccc(Cl)c3)S/C2=N\c2ccc(C(F)(F)F)cc2)CC1`, the mortality at 100 µM turned out to be 20% in test [1]; 100% in test [2]; 70% in test [3]; 100% in test [4]; 100% in test [6]; 40% in test [7].
`Cc1ccccc1/C=C1\S/C(=N\c2ccc(C(F)(F)F)cc2)N(CCCN2CCN(C)CC2)C1=O`: the mortality at 100 µM in test [1] worked out at 0%; in test [2], 0%; in test [3], 0%; in test [4], 10%; in test [6] it was 30%; in test [7] it was 0%.
For `CCOC(=O)/C=C1\S/C(=N\c2ccccc2)N(CCCN2CCN(C)CC2)C1=O`, the mortality at 100 µM in test [1] was determined as 0%; in test [2], 10%; in test [3], 0%; in test [4] it was 100%; in test [6], 100%; in test [7], 0%. This compound had a pIC50 in test [5] of 4.12.
With `CN1CCN(CCCN2C(=O)/C(=C/c3ccc(Cl)cc3)S/C2=N\c2ccc(C(F)(F)F)cc2)CC1`, the mortality at 100 µM in test [1] is 0%; in test [2] it was 100%; in test [3], 0%; in test [4], 100%; in test [6], 100%; in test [7], 0%.
Consider `CN1CCN(CCCN2C(=O)/C(=C/c3ccccc3F)S/C2=N\c2ccc(C(F)(F)F)cc2)CC1`, for which the mortality at 100 µM in test [1] was found to be 0%; in test [2] it was 0%; in test [3], 0%; in test [4], 0%; in test [6], 20%; in test [7], 0%.
Consider `CCOC(=O)/C=C1\S/C(=N\c2ccccc2)N(CCCN2CCCC2)C1=O`, for which the mortality at 100 µM was 0% in test [1]; 20% in test [2]; 0% in test [3]; 30% in test [4]; 100% in test [6]; 0% in test [7]. For the same compound, the negative logarithm of the IC50 (pIC50) in test [5] is 4.11.
As for `CCOC(=O)/C=C1\S/C(=N\c2ccccc2)N(CCN(CC)CC)C1=O`, the mortality at 100 µM amounted to 0% in test [1]; 10% in test [2]; 0% in test [3]; 10% in test [4]; 30% in test [6]; 0% in test [7]. In test [5], this compound showed a pIC50 of less than 4.00.
Regarding `CCOC(=O)/C=C1\S/C(=N\c2ccc(F)cc2)N(CCCN2CCN(C)CC2)C1=O`, the mortality at 100 µM in test [1] amounted to 0%; in test [2] it was 30%; in test [3], 0%; in test [4] it was 80%; in test [6], 100%; in test [7], 0%. The pIC50 in test [5] was 4.37.
On to `Cc1ccc(/C=C2\S/C(=N\c3ccc(C(F)(F)F)cc3)N(CCCN3CCN(C)CC3)C2=O)cc1`, for which the mortality at 100 µM came to 0% in test [1]; 30% in test [2]; 0% in test [3]; 70% in test [4]; 100% in test [6]; 0% in test [7].
`CCOC(=O)/C=C1\S/C(=N\c2cccc(Cl)c2)N(CCCN2CCN(C)CC2)C1=O`: the mortality at 100 µM in test [1] worked out at 10%; in test [2], 100%; in test [3], 100%; in test [4], 100%; in test [6], 100%; in test [7], 30%. Further, the pIC50 in test [5] is 4.39.
With `COc1ccccc1/C=C1\S/C(=N\c2ccc(C(F)(F)F)cc2)N(CCCN2CCN(C)CC2)C1=O`, the mortality at 100 µM turned out to be 0% in test [1]; 0% in test [2]; 0% in test [3]; 10% in test [4]; 70% in test [6]; 0% in test [7].
Regarding `Cc1cc(/C=C2\S/C(=N\c3ccc(C(F)(F)F)cc3)N(CCCN3CCN(C)CC3)C2=O)ccc1F`, the mortality at 100 µM was found to be 0% in test [1]; 10% in test [2]; 0% in test [3]; 20% in test [4]; 30% in test [6]; 0% in test [7].
`CN1CCN(CCCN2C(=O)CS/C2=N\c2ccc(C(F)(F)F)cc2)CC1`: the mortality at 100 µM in test [1] stood at 0%; in test [2], 0%; in test [3] it was 0%; in test [4] it was 0%; in test [6], 10%; in test [7], 0%.
On to `CCOC(=O)/C=C1\S/C(=N\c2ccc(CC)cc2)N(CCCN2CCN(C)CC2)C1=O`, for which the mortality at 100 µM in test [1] was 0%; in test [2], 60%; in test [3], 10%; in test [4] it was 100%; in test [6], 100%; in test [7], 0%.
On to `Cc1cccc(/C=C2\S/C(=N\c3ccc(C(F)(F)F)cc3)N(CCCN3CCN(C)CC3)C2=O)c1`, for which the mortality at 100 µM in test [1] amounted to 0%; in test [2], 20%; in test [3], 0%; in test [4] it was 90%; in test [6], 100%; in test [7], 0%.
With `CN1CCN(CCCN2C(=O)/C(=C/c3ccccc3Cl)S/C2=N\c2ccc(C(F)(F)F)cc2)CC1`, the mortality at 100 µM in test [1] amounted to 0%; in test [2] it was 0%; in test [3], 0%; in test [4] it was 0%; in test [6], 40%; in test [7], 0%.
Take `CN1CCN(CCCN2C(=O)/C(=C/c3cccc(F)c3)S/C2=N\c2ccc(C(F)(F)F)cc2)CC1`: the mortality at 100 µM in test [1] is 0%; in test [2] it was 0%; in test [3] it was 0%; in test [4], 30%; in test [6], 30%; in test [7] it was 0%.
With `COc1cccc(/C=C2\S/C(=N\c3ccc(C(F)(F)F)cc3)N(CCCN3CCN(C)CC3)C2=O)c1`, the mortality at 100 µM in test [1] amounted to 0%; in test [2] it was 70%; in test [3], 20%; in test [4], 100%; in test [6], 100%; in test [7], 0%.
